Data published in ChEMBL document CHEMBL1132813, “Design, synthesis and cytotoxic activities of naphthyl analogues of combretastatin A-4” (Bioorg Med Chem Lett, 2000).

Tests used:
Format in all cases: functional, cell-based
SK-MEL-28 = assay: The compound was evaluated for its cytotoxic potency against MEL-28 cell line; conditions: Homo sapiens
HT-29 = assay: The compound was evaluated for its cytotoxic potency against HT-29 cell line; conditions: Homo sapiens
A549 = assay: The compound was evaluated for its cytotoxic potency against A-549 cell line; conditions: Homo sapiens
P388 = assay: The compound was evaluated for its cytotoxic potency against P388 cell line; conditions: Mus musculus

| SMILES | IC50 (SK-MEL-28) | IC50 (HT-29) | IC50 (A549) | IC50 (P388) |
| --- | --- | --- | --- | --- |
| C(=C/c1ccc2ccccc2c1)/c1ccc2ccccc2c1 | 3980 nM | 3980 nM | 3980 nM | 3980 nM |
| COc1ccc(/C=C/c2ccc3ccccc3c2)cc1O | 3980 nM | 3980 nM | 3980 nM | 3980 nM |
| COc1ccc2[nH]c(-c3ccc4ccccc4c3)c(-c3cc(OC)c(OC)c(OC)c3)c2c1 | 1260 nM | 1260 nM | 1260 nM | 1260 nM |
| COc1cc(CCc2ccc3ccccc3c2)cc(OC)c1OC | 316 nM | 316 nM | 316 nM | 316 nM |
| COc1cc(/C=C/c2ccc3ccccc3c2)cc(OC)c1OC | 398 nM | 398 nM | 398 nM | 398 nM |
| COc1ccc(/C=C\c2ccc3ccccc3c2)cc1O | 39.8 nM | 39.8 nM | 39.8 nM | 39.8 nM |
| COc1ccc(CCc2ccc3ccccc3c2)cc1O | 5010 nM | 10000 nM | 5010 nM | 5010 nM |
| COc1ccc(/C=C\c2cc(OC)c(OC)c(OC)c2)cc1O [COMBRETASTATIN A4] | 3.16 nM | 31.6 nM | 3.16 nM | 3.16 nM |
| COc1cc(/C=C\c2ccc3ccccc3c2)cc(OC)c1OC [NAPHTHYLCOMBRETASTATIN] | 15.8 nM | 15.8 nM | 15.8 nM | 15.8 nM |
